# Values joined by “and” are separate entries in the source; they are usually repeats but may differ in a detail not shown here. Identical values can stand only once. Marks after values point to notes of the source that are not given here.
# B1: BPI: human purified bactericidal/permeability-increasing (BPI) protein, 456 residues, approximately 55 kD (protein, listed as Homo sapiens)
# chain: VNPGVVVRISQKGLDYASQQGTAALQKELKRIKIPDYSDSFKIKHLGKGHYSFYSMDIREFQLPSSQISMVPNVGLKFSISNANIKISGKWKAQKRFLKMSGNFDLSIEGMSISADLKLGSNPTSGKPTITASSCSSHINSVHVHISKSKVGWLIQLFHKKIESALRNKMNSQVCEKVTNSVSSKLQPYFQTL
# How the values were obtained:
# [1] = system: subjects with glucose intolerance; assay: Insulin sensitivity by HOMA (Homeostasis model assessment) in the metformin study; assay type: in vivo, human; conditions: mean ± SD
# Experimental: (§1) The clinical study was performed in accordance with the Declaration of Helsinki (revised version of Hong Kong 1989) as well as with the EC Note for guidance “Good clinical practice for studies on medicinal products in the European Community”. It was approved by the local Ethics Committee and the Spanish Health Department (Clinical assay number: 97/337). Thirty-one patients were randomized either to placebo or metformin according to the randomization tablets supply generated by LIPHA using the computer program RANCODE +3.1. A dietician with the aim of assuring a stable weight gave general diabetic dietary advice at the beginning of the study. Two months after the first visit (visit 2) subjects started taking metformin or placebo, one tablet per day (850 mg) for the first week and then two tablets per day (one after breakfast and one after dinner) for the following eleven weeks. Drug compliance was checked by tablet counts and any side effect was recorded at visit 3 (6 weeks after randomization) and at visit 4 (at the end of the study).
# To assess glucose tolerance, an OGTT was performed after an overnight fast. Insulin sensitivity was evaluated by HOMA (Homeostasis model assessment) using basal (mean of three samples obtained at 5 minutes interval) glucose and insulin (Bonora E, et al., Diabetes Care, 2000, vol. 23, pp. 57-63). Beta cell function was calculated by CIGMA (Continuous infusion of glucose with model assessment) from achieved C-peptide and glucose values (Hosker J P, et al., Diabetologia 1985, vol. 28, pp. 401-11). CIGMA test consists of a continuous intravenous infusion of 5-mg glucose per kg of ideal body weight.min^−1 using a 10 g.dl^−1 glucose solution with model assessment of glucose, insulin and C-peptide (RIA, Byk-Sangtec Diagnostica, Dietzenbach, Germany) values obtained before (basal value, mean value of three samples obtained at 5 minute intervals) and at the end (achieved value, mean value of samples obtained at 50, 55 and 60 minutes) of the test. […]
# [2] = system: subjects with glucose intolerance; assay: CIGMA (continuous infusion of glucose with model assessment) in the metformin study; assay type: in vivo, human; conditions: mean ± SD; for Achieved C-peptide / Achieved glucose / Achieved insulin: after intravenous glucose
# Experimental: as §1
# To assess glucose tolerance, an OGTT was performed after an overnight fast. Insulin sensitivity was evaluated by HOMA (Homeostasis model assessment) using basal (mean of three samples obtained at 5 minutes interval) glucose and insulin (Bonora E, et al., Diabetes Care, 2000, vol. 23, pp. 57-63). Beta cell function was calculated by CIGMA (Continuous infusion of glucose with model assessment) from achieved C-peptide and glucose values (Hosker J P, et al., Diabetologia 1985, vol. 28, pp. 401-11). CIGMA test consists of a continuous intravenous infusion of 5-mg glucose per kg of ideal body weight.min^−1 using a 10 g.dl^−1 glucose solution with model assessment of glucose, insulin and C-peptide (RIA, Byk-Sangtec Diagnostica, Dietzenbach, Germany) values obtained before (basal value, mean value of three samples obtained at 5 minute intervals) and at the end (achieved value, mean value of samples obtained at 50, 55 and 60 minutes) of the test. C-peptide detection level was 0.1 ng/ml and had intra- and inter-assay coefficients of variation of 2.6% and 4.4%.
# BPI = assay: Circulating plasma BPI (BPI ELISA) in the metformin study; assay type: in vivo, human
# Experimental: BPI ELISA: Plasma EDTA BPI concentrations were measured by a sandwich enzyme-linked immunosorbent assay (Human BPI ELISA kit, HyCult biotechnology b.v.; P B Uden, The Netherlands) according to the manufacturer's instructions. The kit has an assay sensitivity of 250 pg/ml. […] The clinical study was performed in accordance with the Declaration of Helsinki (revised version of Hong Kong 1989) as well as with the EC Note for guidance “Good clinical practice for studies on medicinal products in the European Community”. It was approved by the local Ethics Committee and the Spanish Health Department (Clinical assay number: 97/337). Thirty-one patients were randomized either to placebo or metformin according to the randomization tablets supply generated by LIPHA using the computer program RANCODE +3.1. A dietician with the aim of assuring a stable weight gave general diabetic dietary advice at the beginning of the study. Two months after the first visit (visit 2) subjects started taking metformin or placebo, one tablet per day (850 mg) for the first week and then two tablets per day (one after breakfast and one after dinner) for the following eleven weeks. Drug compliance was checked by tablet counts and any side effect was recorded at visit 3 (6 weeks after randomization) and at visit 4 (at the end of the study).
# [3] = system: subjects with glucose intolerance; assay: Randomized clinical study of metformin vs placebo in glucose-intolerant patients: anthropometric and fasting variables; assay type: in vivo, human; conditions: mean ± SD; for BMI: 9 patients
# Source text: The objective of this study was to evaluate the effects of changing insulin action—after treatment with an insulin sensitizer (metformin)—on circulating BPI in subjects with glucose intolerance.
# Patients were recruited from the Diabetes and Endocrinology Unit at Hospital de Girona Dr Josep Trueta. They were offered participation in the study if they were between 30 and 65 years old and fulfilled all the inclusion criteria. Men and women were both included, but women only when surgical sterility was documented or when they were post-menopausal or when a reliable method of contraception was used. The inclusion criteria were as follows: a) body mass index (BMI) between 22 and 35 kg/m^2, b) impaired glucose tolerance by an OGTT performed two months before the beginning of the study or a fasting glucose level between 110 and 140 mg/dl, c) stability of diet and physical exercise within the past two months. All subjects signed a written informed consent.
# as §1
# Out of 118 pre-selected subjects, 31 patients were randomized for the study (16 to metformin and 15 to placebo). Six patients ([…] and 3 on placebo) discontinued early and two non-compliant patients were excluded (both in metformin group). 21 patients (9 on metformin and 12 on placebo) were finally analyzed.
# [4] = system: subjects with glucose intolerance; assay: Oral glucose tolerance test (OGTT) in the metformin study; assay type: in vivo, human; conditions: mean ± SD
# Experimental: The clinical study was performed in accordance with the Declaration of Helsinki (revised version of Hong Kong 1989) as well as with the EC Note for guidance “Good clinical practice for studies on medicinal products in the European Community”. It was approved by the local Ethics Committee and the Spanish Health Department (Clinical assay number: 97/337). Thirty-one patients were randomized either to placebo or metformin according to the randomization tablets supply generated by LIPHA using the computer program RANCODE +3.1. A dietician with the aim of assuring a stable weight gave general diabetic dietary advice at the beginning of the study. […] Drug compliance was checked by tablet counts and any side effect was recorded at visit 3 (6 weeks after randomization) and at visit 4 (at the end of the study).
# To assess glucose tolerance, an OGTT was performed after an overnight fast. Insulin sensitivity was evaluated by HOMA (Homeostasis model assessment) using basal (mean of three samples obtained at 5 minutes interval) glucose and insulin (Bonora E, et al., Diabetes Care, 2000, vol. 23, pp. 57-63). Beta cell function was calculated by CIGMA (Continuous infusion of glucose with model assessment) from achieved C-peptide and glucose values (Hosker J P, et al., Diabetologia 1985, vol. 28, pp. 401-11). […]
# ob/ob mice = assay: Effects of administration of BPI on blood glucose concentration in ob/ob mice; assay type: in vivo
# Experimental: The objective of this study was to evaluate the effects of administration of BPI on glucose concentration on ob/ob mice
# Obese mice ob/ob were treated for 6 days with a daily intraperitoneal dose of 2.5 ng of human purified BPI per gram of body weight or vehicle (control mice). Before the treatment both groups (control and BPI treated) presented a high glycemia and no differences were identified between both groups (342±33 and 342±38 mg/dl, respectively).
# [5] = metformin, 12 weeks, p<0.05 within group
# [6] = metformin, 12 weeks, p<0.05 within group, listed as metformin
molecule,measurement,setting,value
"CN(C)C(=N)N=C(N)N [Metformin, metformin]",HOMA sensitivity,"[1]; metformin group, baseline",37.4 ± 15.2%
same,HOMA sensitivity,[1]; [5],50.4 ± 23.2^b %
same,HOMA sensitivity,[1]; [6],improved
same,Achieved C-peptide,"[2]; metformin group, baseline",5.2 ± 1.2 ng/mL
same,Achieved glucose,"[2]; metformin group, baseline",190.5 ± 18.9 mg/dL
same,Achieved insulin,"[2]; metformin group, baseline",28.5 ± 13.5 mU/l
same,Achieved glucose,"[2]; metformin, 12 weeks",174.6 ± 34.5 mg/dL
same,Achieved insulin,"[2]; metformin, 12 weeks",23.3 ± 7.6 mU/l
same,Achieved C-peptide,[2]; [5],4.2 ± 1.0^b ng/ml
same,Achieved C-peptide,[2]; [6],statistically lower
same,CIGMA beta cell function,"[2]; metformin group, baseline",82.8 ± 24.0%
same,CIGMA beta cell function,"[2]; metformin, 12 weeks",90.9 ± 34.0%
same,CIGMA beta cell function,"[2]; metformin, 12 weeks, listed as metformin",not modified
same,"BPI (circulating, plasma)","BPI; metformin group, baseline, median (interquartile range 1.26-7.73)",2.75 ng/mL
same,"BPI (circulating, plasma)","BPI; metformin, 12 weeks, median (interquartile range 2.56-38.8), p = 0.017 within group",7.49 ng/mL
same,"BPI (circulating, plasma)","BPI; metformin, 12 weeks, median (interquartile range 2.56-38.8), p = 0.017 within group, listed as metformin",significantly increased
same,BMI,"[3]; metformin 850 mg tablets, two per day, 12 weeks",27.7 ± 4.3 Kg/m^2
same,BMI,"[3]; metformin group, baseline (before treatment)",28.0 ± 4.5 Kg/m^2
same,Fasting C-peptide,"[3]; metformin group, baseline",2.5 ± 0.7 ng/mL
same,Fasting glucose,"[3]; metformin group, baseline",110.1 ± 9.9 mg/dL
same,Fasting insulin,"[3]; metformin group, baseline",11.6 ± 5.4 mU/l
same,Waist circumference,"[3]; metformin group, baseline",95.9 ± 11.5
same,Waist-to-hip ratio,"[3]; metformin group, baseline",0.96 ± 0.1
same,Waist circumference,"[3]; metformin, 12 weeks",94.8 ± 9.4
same,Waist-to-hip ratio,"[3]; metformin, 12 weeks",0.92 ± 0.07
same,Fasting glucose,"[3]; metformin, 12 weeks, p<0.01 within group",98.9 ± 15.7^a mg/dl
same,Fasting glucose,"[3]; metformin, 12 weeks, p<0.01 within group, listed as metformin",decreased
same,Fasting C-peptide,[3]; [5],1.8 ± 0.5^b ng/ml
same,Fasting insulin,[3]; [5],8.8 ± 3.5^b mU/l
same,Fasting C-peptide,[3]; [6],statistically lower
same,Fasting insulin,[3]; [6],statistically lower
same,120′ OGTT glucose,"[4]; metformin group, baseline",162.2 ± 27.8 mg/dL
same,120′ OGTT glucose,"[4]; metformin, 12 weeks",140.6 ± 42.9 mg/dL
B1,"GLU (blood glucose concentration), Mean","ob/ob mice; BPI treated group, day 0 (before the treatment)",342 ± 38 mg/dL and 341.67 mg/dL
same,"GLU (blood glucose concentration), Mean","ob/ob mice; daily intraperitoneal 2.5 ng human purified BPI per gram body weight, 3 days of treatment",289.00 mg/dL
same,"GLU (blood glucose concentration), Mean","ob/ob mice; daily intraperitoneal 2.5 ng human purified BPI per gram body weight, 6 days of treatment",261 ± 21 mg/dL and 261.80 mg/dL
same,Effect on glycemia,"ob/ob mice; treatment for 3 or 6 days with 2.5 ng/g BPI i.p. daily, vs control",pronounced decrease of glycemia

# From US20090215684A1, “Use of BPI Protein for Treatment of Diseases” (BRIDGE BIORESEARCH LIMITED, priority 2005, published 2009)
